In US10450316B2, “Certain protein kinase inhibitor” (Chongqing Fochon Pharmaceutical Co., Ltd., priority 2015, dated 2019):

Each compound was assayed on BE(2)-C cell (assay: Cell proliferation assay (MTS) in BE(2)-C cells). Conditions: Homo sapiens, inhibition of BE(2)-C cell proliferation, 48 h.
Assay type: cell-based
Procedure, shortened: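 Proliferation read-out was MTS absorbance at 490 nm, with 650 nm as reference, after a 2 h MTS incubation, giving IC50 values. Before reading, BE(2)-C cells plated at 3000 per well were exposed to nine compound concentrations from 10000 down to 1.5 nM for 48 h at 37 °C, 5% CO2.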

| Structure (SMILES) | IC50 [nM] |
| --- | --- |
| C[C@@H]1CCc2nc3c(F)cc(-c4nc(Nc5ccc(CN6CCC7(CC6)CNC7)cn5)ncc4F)cc3n21 [Example 86, (R)-N-(5-((2,7-diazaspiro[3.5]nonan-7-yl)methyl)pyridin-2-yl)-5-fluoro-4-(5-fluoro-1-methyl-2,3-dihydro-1H-benzo[d]pyrrolo[1,2-a]imidazol-7-yl)pyrimidin-2-amine] | > 100 |
| FC[C@@H]1CCc2nc3c(F)cc(-c4nc(Nc5ccc(CN6CCN7CCC[C@@H]7C6)cn5)ncc4F)cc3n21 [Example 19, 5-fluoro-4-((S)-5-fluoro-1-(fluoromethyl)-2,3-dihydro-1H-benzo[d]pyrrolo[1,2-a]imidazol-7-yl)-N-(5-(((R)-hexahydropyrrolo[1,2-a]pyrazin-2(1H)-yl)methyl)pyridin-2-yl)pyrimidin-2-amine] | < 10 |
| Fc1cnc(Nc2ccc(CN3CC4CNCC4C3)cn2)nc1-c1cc(F)c2nc3n(c2c1)[C@H](C(F)(F)F)CC3 (stereo partly drawn) [Example 73, 5-fluoro-4-((5)-5-fluoro-1-(trifluoromethyl)-2,3-dihydro-1H-benzo[d]pyrrolo[1,2-a]imidazol-7-yl)-N-(5-((hexahydropyrrolo[3,4-c]pyrrol-2(1H)-yl)methyl)pyridin-2-yl)pyrimidin-2-amine] | > 100 |
| CN1CC2CCC(C1)N2Cc1ccc(Nc2ncc(F)c(-c3cc(F)c4nc5n(c4c3)[C@H](CF)CC5)n2)nc1 [Example 33, 5-fluoro-4-((S)-5-fluoro-1-(fluoromethyl)-2,3-dihydro-1H-benzo[d]pyrrolo[1,2-a]imidazol-7-yl)-N-(5-((3-methyl-3,8-diazabicyclo[3.2.1]octan-8-yl)methyl)pyridin-2-yl)pyrimidin-2-amine] | 10 to 100 |
| C[C@@H]1CCc2nc3c(F)cc(-c4nc(Nc5ccc(CN6CCN7CCC[C@@H]7C6)cn5)ncc4F)cc3n21 [Example 85, 5-fluoro-4-((R)-5-fluoro-1-methyl-2,3-dihydro-1H-benzo[d]pyrrolo[1,2-a]imidazol-7-yl)-N-(5-(((R)-hexahydropyrrolo[1,2-a]pyrazin-2(1H)-yl)methyl)pyridin-2-yl)pyrimidin-2-amine] | 10 to 100 |
| Fc1cnc(Nc2ccc(CN3C4CCC3CNC4)cn2)nc1-c1cc(F)c2nc3n(c2c1)[C@H](C(F)(F)F)CC3 [Example 76, N-(5-((3,8-diazabicyclo[3.2.1]octan-8-yl)methyl)pyridin-2-yl)-5-fluoro-4-((S)-5-fluoro-1-(trifluoro-methyl)-2,3-dihydro-1H-benzo[d]pyrrolo[1,2-a]imidazol-7-yl)pyrimidin-2-amine] | 10 to 100 |
| CC1(C)CCc2nc3c(F)cc(-c4nc(Nc5ccc(CN6CC7CNCC7C6)cn5)ncc4F)cc3n21 (stereo not drawn) [Example 123, 5-fluoro-4-(5-fluoro-1,1-dimethyl-2,3-dihydro-1H-benzo[d]pyrrolo[1,2-a]imidazol-7-yl)-N-(5-((hexahydropyrrolo[3,4-c]pyrrol-2(1H)-yl)methyl)pyridin-2-yl)pyrimidin-2-amine] | > 100 |
| CCN1CC2CCC(C1)N2Cc1ccc(Nc2ncc(F)c(-c3cc(F)c4nc5n(c4c3)[C@H](C(F)(F)F)CC5)n2)nc1 [Example 78, N-(5-((3-ethyl-3,8-diazabicyclo[3.2.1]octan-8-yl)methyl)pyridin-2-yl)-5-fluoro-4-((S)-5-fluoro-1-(trifluoromethyl)-2,3-dihydro-1H-benzo[d]pyrrolo [1,2-a]imidazol-7-yl)pyrimidin-2-amine] | 10 to 100 |
| Fc1cnc(Nc2ccc(CN3C[C@@H]4C[C@H]3CN4)cn2)nc1-c1cc(F)c2nc3n(c2c1)C1(CC3)CC1 [Example 135, N-(5-(((1S,4S)-2,5-diazabicyclo[2.2.1]heptan-2-yl)methyl)pyridin-2-yl)-5-fluoro-4-(5-fluoro-2,3-dihydrospiro[benzo[d]pyrrolo[1,2-a]imidazole-1,1′-cyclopropan]-7-yl)pyrimidin-2-amine] | > 1000 |
| CC1(C)CCc2nc3ncc(-c4cc(Nc5ccc(CN6C7CCC6CNC7)cn5)ncc4F)cc3n21 [Example 167, N-(5-((3,8-diazabicyclo[3,2,1]octan-8-yl)methyl)pyridin-2-yl)-4-(6,6-dimethyl-7,8-dihydro-6H-pyrrolo[1′,2′:1,2]imidazo[4,5-b]pyridin-3-yl)-5-fluoropyridin-2-amine] | 10 to 100 |
| FC[C@@H]1CCc2nc3c(F)cc(-c4nc(Nc5ccc(CN6CC7(CNC7)C6)cn5)ncc4F)cc3n21 [Example 23, (S)-N-(5-((2,6-diazaspiro[3.3]heptan-2-yl)methyl)pyridin-2-yl)-5-fluoro-4-(5-fluoro-1-(fluoromethyl)-2,3-dihydro-1H-benzo[d]pyrrolo[1,2-a]imidazol-7-yl)pyrimidin-2-amine] | > 1000 |
| CN1CCN(Cc2ccc(Nc3ncc(F)c(-c4cc(F)c5nc6n(c5c4)[C@H](C(F)(F)F)CC6)n3)nc2)CC1 [Example 17, (S)-5-fluoro-4-(5-fluoro-1-(trifluoromethyl)-2,3-dihydro-1H-benzo[d]pyrrolo[1,2-a]imidazol-7-yl)-N-(5-((4-methylpiperazin-1-yl)methyl)pyridin-2-yl)pyrimidin-2-amine] | 10 to 100 |
| CCN1CC2CCC(C1)N2Cc1ccc(Nc2cc(-c3cc(F)c4nc5n(c4c3)C(C)(C)CC5)c(F)cn2)nc1 [Example 163, N-(5-((3-ethyl-3,8-diazabicyclo[3.2.1]octan-8-yl)methyl)pyridin-2-yl)-5-fluoro-4-(5-fluoro-1,1-dimethyl-2,3-dihydro-1H-benzo[d]pyrrolo[1,2-a]imidazol-7-yl)pyridin-2-amine] | > 1000 |
| C[C@@H]1CCc2nc3c(F)cc(-c4nc(Nc5ccc(CN6CC7CCC(C6)N7)cn5)ncc4F)cc3n21 [Example 104, N-(5-((3,8-diazabicyclo[3.2.1]octan-3-yl)methyl)pyridin-2-yl)-5-fluoro-4-((R)-5-fluoro-1-methyl-2,3-dihydro-1H-benzo[d]pyrrolo[1,2-a]imidazol-7-yl)pyrimidin-2-amine] | 10 to 100 |
| COC[C@@H]1CCc2nc3c(F)cc(-c4nc(Nc5ccc(CN6CCNCC6)cn5)ncc4F)cc3n21 [Example 7, (S)-5-fluoro-4-(5-fluoro-1-(methoxymethyl)-2,3-dihydro-1H-benzo[d]pyrrolo[1,2-a]imidazol-7-yl)-N-(5-(piperazin-1-ylmethyl)pyridin-2-yl)pyrimidin-2-amine] | > 100 |
| CCN1CCN(Cc2cnc(Nc3cc(-c4cc(F)c5nc6n(c5c4)C(C)(C)CC6)c(F)cn3)nc2)CC1 [Example 166, 5-((4-ethylpiperazin-1-yl)methyl)-N-(5-fluoro-4-(5-fluoro-1,1-dimethyl-2,3-dihydro-1H-benzo[d]pyrrolo[1,2-a]imidazol-7-yl)pyridin-2-yl)pyrimidin-2-amine] | > 100 |
| Fc1cnc(Nc2ccc(CN3CCN4CCC[C@H]4C3)cn2)nc1-c1cc(F)c2nc3n(c2c1)C1(CC3)CC1 [Example 144, (S)-5-fluoro-4-(5-fluoro-2,3-dihydrospiro[benzo [d]pyrrolo[1,2-a]imidazole-1,1′-cyclopropan]-7-yl)-N-(5-((hexahydropyrrolo[1,2-a]pyrazin-2(1H)-yl)methyl)pyridin-2-yl)pyrimidin-2-amine] | 10 to 100 |
| C[C@@H]1CCc2nc3c(F)cc(-c4nc(Nc5ccc(CN6CCC7(CCN(C)CC7)CC6)cn5)ncc4F)cc3n21 [Example 93, (R)-5-fluoro-4-(5-fluoro-1-methyl-2,3-dihydro-1H-benzo[d]pyrrolo[1,2-a]imidazol-7-yl)-N-(5-((9-methyl-3,9-diazaspiro[5.5]undecan-3-yl)methyl)pyridin-2-yl)pyrimidin-2-amine] | > 100 |
